Measurements as given in patent US9725449B2, “Tricyclic compounds as anticancer agents” (BRISTOL-MYERS SQUIBB COMPANY, priority 2015, dated 2017).
pIC50: −log10 of the molar value.

The molecules below were run against BRD4 (Homo sapiens, UniProt O60885) (assay: Time resolved fluorescence resonance energy transfer (TR-FRET) binding assay, bromodomain BRD4). Details: one of the FRET assays described; read-out: FRET BRD4 IC50.

**Q.** `COc1ncc(S(C)(=O)=O)c2c1c1ncc(-c3c(C)nnn3C)cc1n2[C@H](c1ccccc1)C1CCOCC1` [Example 46, 5-(Dimethyl-1H-1,2,3-triazol-5-yl)-10-methanesulfonyl-13-methoxy-8-[(S)-oxan-4-yl(phenyl)methyl]-3,8,12-triazatricyclo[7.4.0.0^2,^7]trideca-1(13),2(7),3,5,9,11-hexaene] was tested. Which pIC50 did it give?
**A.** The pIC50 was greater than 8.00.

**Q.** `[2H]C([2H])([2H])c1nnn(C)c1-c1cnc2c3c(OC)ncc(S(C)(=O)=O)c3n([C@H](c3ccccc3)C3CCOCC3)c2c1` [Example 47, 10-Methanesulfonyl-13-methoxy-5-[4-(^2H3)methyl-1-methyl-1H-1,2,3-triazol-5-yl]-8-[(S)-oxan-4-yl(phenyl)methyl]-3,8,12-triazatricyclo[7.4.0.0^2,^7]trideca-1(13),2(7),3,5,9,11-hexaene] was tested. Which pIC50 did it give?
**A.** The pIC50 was greater than 9.00.

**Q.** `COc1ncc(S(C)(=O)=O)c2c1c1ncc(-c3c(C)noc3C)cc1n2[C@H](c1ccccc1F)C1CCOCC1` [Example 48, 5-(Dimethyl-1,2-oxazol-4-yl)-8-[(S)-(2-fluorophenyl)(oxan-4-yl)methyl]-10-methanesulfonyl-13-methoxy-3,8,12-triazatricyclo[7.4.0.0^2,^7]trideca-1(13),2(7),3,5,9,11-hexaene] was tested. Which pIC50 did it give?
**A.** The pIC50 was greater than 9.00.

**Q.** How did the pIC50 turn out when `COc1ncc(S(C)(=O)=O)c2c1c1ncc(-c3c(C)noc3C)cc1n2[C@H](c1ccc(F)cc1)C1CCOCC1` [Example 49, 5-(Dimethyl-1,2-oxazol-4-yl)-8-[(S)-(4-fluorophenyl)(oxan-4-yl)methyl]-10-methanesulfonyl-13-methoxy-3,8,12-triazatricyclo[7.4.0.0^2,^7]trideca-1(13),2(7),3,5,9,11-hexaene] was run?
**A.** Its pIC50 is greater than 9.00.

**Q.** How did the pIC50 turn out when `COc1ncc(S(C)(=O)=O)c2c1c1ncc(-c3c(C)nnn3C)cc1n2[C@H](c1ccccc1F)C1CCOCC1` [Example 50, 5-(Dimethyl-1H-1,2,3-triazol-5-yl)-8-[(S)-(2-fluorophenyl)(oxan-4-yl)methyl]-10-methanesulfonyl-13-methoxy-3,8,12-triazatricyclo[7.4.0.0^2,^7]trideca-1(13),2(7),3,5,9,11-hexaene] was run?
**A.** Its pIC50 is greater than 9.00.

**Q.** How did the pIC50 turn out when `[2H]C([2H])([2H])c1nnn(C)c1-c1cnc2c3c(OC)ncc(S(C)(=O)=O)c3n([C@H](c3ccccc3F)C3CCOCC3)c2c1` [Example 51, 8-[(S)-(2-Fluorophenyl)(oxan-4-yl)methyl]-10-methanesulfonyl-13-methoxy-5-[4-(^2H3)methyl-1-methyl-1H-1,2,3-triazol-5-yl]-3,8,12-triazatricyclo[7.4.0.0^2,^7]trideca-1(13),2(7),3,5,9,11-hexaene] was run?
**A.** Its pIC50 is greater than 9.00.

**Q.** How did the pIC50 turn out when `COc1ncc(S(C)(=O)=O)c2c1c1ncc(-c3c(C)nnn3C)cc1n2[C@H](c1ccc(F)cc1)C1CCOCC1` [Example 52, 5-(Dimethyl-1H-1,2,3-triazol-5-yl)-8-[(S)-(4-fluorophenyl)(oxan-4-yl)methyl]-10-methanesulfonyl-13-methoxy-3,8,12-triazatricyclo[7.4.0.0^2,^7]trideca-1(13),2(7),3,5,9,11-hexaene] was run?
**A.** Its pIC50 is greater than 9.00.

**Q.** `CCOc1ncc(S(C)(=O)=O)c2c1c1ncc(-c3c(C)nnn3C)cc1n2[C@H](c1ccccc1)C1CCOCC1` [Example 53, 5-(Dimethyl-1H-1,2,3-triazol-5-yl)-13-ethoxy-10-methanesulfonyl-8-[(S)-oxan-4-yl(phenyl)methyl]-3,8,12-triazatricyclo[7.4.0.0^2,^7]trideca-1(13),2(7),3,5,9,11-hexaene] was tested. Which pIC50 did it give?
**A.** The pIC50 was greater than 9.00.

**Q.** `[2H]C([2H])([2H])Oc1ncc(S(C)(=O)=O)c2c1c1ncc(-c3c(C)noc3C([2H])([2H])[2H])cc1n2[C@H](c1ccccc1)C1CCOCC1` [Example 54, 10-Methanesulfonyl-13-(^2H3)methoxy-5-[5-(^2H3)methyl-3-methyl-1,2-oxazol-4-yl]-8-[(S)-oxan-4-yl(phenyl)methyl]-3,8,12-triazatricyclo[7.4.0.0^2,^7]trideca-1(13),2(7),3,5,9,11-hexaene] was tested. Which pIC50 did it give?
**A.** Its pIC50 is greater than 8.00.

**Q.** With `[2H]C([2H])([2H])Oc1ncc(S(C)(=O)=O)c2c1c1ncc(-c3c(C)noc3C([2H])([2H])[2H])cc1n2[C@H](c1ccc(F)cc1)C1CCOCC1` [Example 55, 8-[(S)-(4-Fluorophenyl)(oxan-4-yl)methyl]-10-methanesulfonyl-13-(^2H3)methoxy-5-[5-(^2H3)methyl-3-methyl-1,2-oxazol-4-yl]-3,8,12-triazatricyclo[7.4.0.0^2,^7]trideca-1(13),2(7),3,5,9,11-hexaene] as the molecule, how does the pIC50 read?
**A.** The pIC50 was greater than 9.00.

**Q.** How did the pIC50 turn out when `[2H]C([2H])([2H])c1nnn(C)c1-c1cnc2c3c(OCC)ncc(S(C)(=O)=O)c3n([C@H](c3ccccc3)C3CCOCC3)c2c1` [Example 56, 13-Ethoxy-10-methanesulfonyl-5-[4-(^2H3)methyl-1-methyl-1H-1,2,3-triazol-5-yl]-8-[(S)-oxan-4-yl(phenyl)methyl]-3,8,12-triazatricyclo[7.4.0.0^2,^7]trideca-1(13),2(7),3,5,9,11-hexaene] was run?
**A.** Its pIC50 is greater than 9.00.

**Q.** `Cc1nnn(C)c1-c1cnc2c3c(OC(C)C)ncc(S(C)(=O)=O)c3n([C@H](c3ccccc3)C3CCOCC3)c2c1` [Example 57, 5-(Dimethyl-1H-1,2,3-triazol-5-yl)-10-methanesulfonyl-8-[(S)-oxan-4-yl(phenyl)methyl]-13-(propan-2-yloxy)-3,8,12-triazatricyclo[7.4.0.0^2,^7]trideca-1(13),2(7),3,5,9,11-hexaene] was tested. Which pIC50 did it give?
**A.** Its pIC50 is greater than 9.00.

**Q.** `[2H]C([2H])([2H])c1nnn(C)c1-c1cnc2c3c(OC(C)C)ncc(S(C)(=O)=O)c3n([C@H](c3ccccc3)C3CCOCC3)c2c1` [Example 58, 10-Methanesulfonyl-5-[4-(^2H3)methyl-1-methyl-1H-1,2,3-triazol-5-yl]-8-[(S)-oxan-4-yl(phenyl)methyl]-13-(propan-2-yloxy)-3,8,12-triazatricyclo[7.4.0.0^2,^7]trideca-1(13),2(7),3,5,9,11-hexaene] was tested. Which pIC50 did it give?
**A.** The pIC50 was greater than 9.00.

**Q.** `[2H]C([2H])([2H])c1nnn(C)c1-c1cnc2c3c(OCC4CC4)ncc(S(C)(=O)=O)c3n([C@H](c3ccccc3)C3CCOCC3)c2c1` [Example 59, 13-(Cyclopropylmethoxy)-10-methanesulfonyl-5-[4-(^2H3)methyl-1-methyl-1H-1,2,3-triazol-5-yl]-8-[(S)-oxan-4-yl(phenyl)methyl]-3,8,12-triazatricyclo[7.4.0.0^2,^7]trideca-1(13),2(7),3,5,9,11-hexaene] was tested. Which pIC50 did it give?
**A.** The pIC50 was greater than 9.00.

**Q.** How did the pIC50 turn out when `[2H]C([2H])([2H])c1onc(C)c1-c1cnc2c3c(OC)ncc(S(C)(=O)=O)c3n([C@H](c3ccccc3)C3CCOCC3)c2c1` [Example 60, 10-Methanesulfonyl-13-methoxy-5-[5-(^2H3)methyl-3-methyl-1,2-oxazol-4-yl]-8-[(S)-oxan-4-yl(phenyl)methyl]-3,8,12-triazatricyclo[7.4.0.0^2,^7]trideca-1(13),2(7),3,5,9,11-hexaene] was run?
**A.** The pIC50 was greater than 9.00.

**Q.** `[2H]C([2H])([2H])c1nnn(C)c1-c1cnc2c3c(OCC)ncc(S(C)(=O)=O)c3n([C@H](c3ccccc3F)C3CCOCC3)c2c1` [Example 62, 13-Ethoxy-8-[(S)-(2-fluorophenyl)(oxan-4-yl)methyl]-10-methanesulfonyl-5-[4-(^2H3)methyl-1-methyl-1H-1,2,3-triazol-5-yl]-3,8,12-triazatricyclo[7.4.0.0^2,^7]trideca-1(13),2(7),3,5,9,11-hexaene] was tested. Which pIC50 did it give?
**A.** Its pIC50 is greater than 9.00.
